Experimental data as given in US20150065472A1, “INTRAUTERINE APPLICATION OF 18-METHYL-15SS,16SS-METHYLENE-19-NOR-20-SPIROX-4-EN-3-ONE SYSTEMS, INTRAUTERINE SYSTEMS CONTAINING 18-METHYL-15SS,16SS-METHYLENE-19-NOR-20-SPIROX-4-EN-3-ONE, AS WELL AS THE USE THEREOF IN CONTRACEPTION AND GYNAECOLOGICAL THERAPY” (BAYER PHARMA AKTIENGESELLSCHAFT, priority 2012, published 2015).
pEC50: −log10 of the molar value.

Experiments:
[1] = system: IGFBP-1 gene expression; assay: Gene expression analysis in rat uterine tissue after IUS (rod) administration; assay type: in vivo; settings: rat uterus, FIG. 3/4
Experimental: (§1) The local uterine action of the progestin compared to systemic side effects (dissociation) was investigated on the basis of studies using rats. The uterus of ovary-resected rats responds to implantation of progestin-containing IUS (rods) with decidualization and weight gain. The local progestin effects were also determined on the basis of changes in gene expression.
Ovary-resected female rats were treated with estradiol (E2) for three days (0.2 μg/day/animal, subcutaneous dosing). On day 4, an IUS (rod) was implanted into the right uterine horn of each animal. The left uterine horn remained untreated for internal comparison. Administration of E2 was continued with a daily dose of 0.1 μg/animal to ensure responsiveness of the uterus (maintaining progesterone-receptor expression) to progestins. Blood was taken for LH level measurements on days 4, 10 and 17. […]
Gene expression analysis was carried out with from 50 ng to 200 ng of cDNA per reaction on an SDS7900HT Real.time PCR system (Applied Biosystems, Carlsbad, USA) using TaqMan probes (Applied Biosystems; IGFBP-1 Rn00565713_m1, Cyp26a1 Rn00590308_m1, PPIA Rn00690933_m1) and the Fast Blue qPCR MasterMix Plus (Eurogentec, Liège, Belgium; #RT-QP2X-03+FB). For relative quantification, cyclophilin A (PPIA) was used as an endogenous control. Relative expression levels were calculated according to the comparative delta delta CT method.

[2] = Break-down in vivo in animal species; settings: all animal species studied in vivo
[3] = In-vitro break-down (liver) for humans; assay type: in vitro ADME; settings: human liver in vitro
[4] = In-vitro metabolic studies (liver); assay type: in vitro ADME; settings: all in-vitro metabolic studies (liver)
[5] = system: uterus of ovary-resected rats; assay: Uterine weight gain after implantation of progestin-containing IUS (rod) in ovary-resected rats; assay type: in vivo, rat; settings: ovary-resected E2-treated rats, IUS (rod) in right uterine horn, FIG. 1/4
Experimental: as §1
(§2) Ovary-resected female rats were treated with estradiol (E2) for three days (0.2 μg/day/animal, subcutaneous dosing). On day 4, an IUS (rod) was implanted into the right uterine horn of each animal. The left uterine horn remained untreated for internal comparison. Administration of E2 was continued with a daily dose of 0.1 μg/animal to ensure responsiveness of the uterus (maintaining progesterone-receptor expression) to progestins. Blood was taken for LH level measurements on days 4, 10 and 17.

[6] = system: serum LH level of ovary-resected rats; assay: Serum luteinizing hormone (LH) level in ovary-resected rats carrying IUS (rod); assay type: in vivo, rat; settings: FIG. 2/4
Experimental: Serum levels of luteinizing hormone (LH) are used for detecting systemic effects of the locally administered progestin. Basal serum-LH levels of ovary-resected rats are elevated compared to the levels of intact control animals. Undesired systemic efficacy of the uterine-administered progestin can be detected by a decrease in the LH level.
as §2

[7] = molecular target: T1, human androgen receptor (hAR) (Homo sapiens, UniProt P10275); assay: hAR transactivation in PC3 cells stably transfected with hAR and MTV-luc reporter gene; assay type: cell-based; settings: MTV-luc reporter
T1 construct: expressed in transfected cells; host or cells: PC3 (human prostate carcinoma) cells, stably transfected with hAR and MTV-luc reporter
T1 sequence (P10275 1-920): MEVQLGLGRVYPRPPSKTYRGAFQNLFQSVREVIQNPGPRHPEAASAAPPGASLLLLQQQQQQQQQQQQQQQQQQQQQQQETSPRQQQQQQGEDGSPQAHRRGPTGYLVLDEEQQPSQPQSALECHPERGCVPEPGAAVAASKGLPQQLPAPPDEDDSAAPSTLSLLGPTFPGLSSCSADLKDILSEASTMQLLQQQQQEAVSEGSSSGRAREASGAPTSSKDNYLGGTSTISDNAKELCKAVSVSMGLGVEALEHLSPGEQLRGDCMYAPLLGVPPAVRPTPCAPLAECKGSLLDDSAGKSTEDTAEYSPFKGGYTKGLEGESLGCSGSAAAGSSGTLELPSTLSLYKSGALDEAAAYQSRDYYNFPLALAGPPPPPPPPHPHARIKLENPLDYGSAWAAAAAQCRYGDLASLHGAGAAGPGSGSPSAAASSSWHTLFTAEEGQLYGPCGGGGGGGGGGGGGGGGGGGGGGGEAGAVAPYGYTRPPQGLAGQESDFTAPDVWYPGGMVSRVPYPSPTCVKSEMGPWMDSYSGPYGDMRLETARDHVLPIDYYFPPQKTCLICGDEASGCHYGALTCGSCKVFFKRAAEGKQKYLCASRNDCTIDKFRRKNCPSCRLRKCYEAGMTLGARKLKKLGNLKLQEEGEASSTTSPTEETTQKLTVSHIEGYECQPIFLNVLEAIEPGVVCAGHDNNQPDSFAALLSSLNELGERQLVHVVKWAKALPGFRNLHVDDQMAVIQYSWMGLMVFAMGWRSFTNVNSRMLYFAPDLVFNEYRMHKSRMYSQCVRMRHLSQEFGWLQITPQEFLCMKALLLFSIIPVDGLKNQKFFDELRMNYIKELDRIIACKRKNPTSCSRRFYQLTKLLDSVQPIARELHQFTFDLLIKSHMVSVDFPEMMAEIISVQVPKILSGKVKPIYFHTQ
Excerpt: The action on the human androgen receptor (hAR) was studied by means of transactivation analyses. For this, different concentrations of the test substances were to cells with stable expression of the human androgen receptor, and activation of the androgen receptor can be detected via a reporter gene.
For transactivation studies, PC3 (human prostate carcinoma) cells which have been stably transfected with hAR and the MTV-luc reporter gene were used. The culture medium used was RPM! medium (without L-glutamine; without Phenol Red) #E15-49 PAA L-glutamine 200 mM #25030-024 Gibco BRL 100 U/100 μg/ml penicillin/streptomycin Gibco # 15140-122, with 10% foetal calf serum (FCS). The cells were cultured at 37° C. and 5% CO2. The test medium corresponded to the culture medium, except that 10% FCS was replaced with 5% activated carbon-treated FCS (CCS). Cells were seeded in wells of a 96 well plate (“CulturPlate” from Packard #6005180) with 2×10^4 cells/well/200 μl of test medium. The cells were incubated with different concentrations of the test substances, and 80 μl of substrate were measured using the “steadylite HTS Reporter Gene Assay System” from Perkin Elmer.

SMILES | rate of release from the IUS at which IGFBP-1 gene expression is induced, lower than with levonorgestrel [1] | break-down rate in vivo [2] | break-down rates in vitro (liver) for humans [3] | break-down rate in in-vitro metabolic studies (liver) [4] | local efficacy by way of weight gain in the IUS-carrying uterine horn [5] | LH decrease (systemic side effect) ([6]; 10 μg/animal and day dose of compound A) | LH decrease (systemic side effect) ([6]; compound A release range tested 0.6-10 μg per animal and day (except the 10 μg dose)) | pEC50 [7] | LH decrease (systemic side effect) ([6]; compound B release range tested 1-45 μg/animal and day)
CC[C@]12CCC3C4CCC(=O)C=C4CCC3C1[C@@H]1C[C@@H]1[C@@]21CCCO1 (stereo partly drawn) [compound A, 18-methyl-15β,16β-methylene-19-nor-20-spirox-4-en-3-one] | approx. 7 × | very fast | very rapid | very fast | dose-dependent local efficacy | exception | no LH decrease | 8.16 | 
CC[C@]12CCC3C4CCC(=O)C=C4[C@H]4C[C@H]4C3C1[C@@H]1C[C@@H]1[C@@]21CCCO1 (stereo partly drawn) [compound B, 18-methyl-6α,7α,15β,16β-dimethylene-19-nor-20-spirox-4-en-3-one] |  | very fast | very rapid | very fast | dose-dependent local efficacy |  |  | 7.25 | no LH decrease
